“Also recorded” adds a separate entry of the source. Where only a bound is given, the exact number is not on record here.

This is an account of results in US20100035822A1, “PROLINE-RICH PEPTIDES, PHARMACEUTICAL COMPOSITION, USE OF ONE OR MORE PEPTIDES AND METHOD OF TREATMENT” (priority 2006, published 2010).

One data set relates to SK-N-AS cells. Put plainly: NO (nitrite) production in SK-N-AS neuroblastoma cells. Format: cell-based, human. As to conditions: 24 hours incubation. The procedure:
Human neurobalsotma cells (SK-N-AS, ATCC no. CRL-2137) were kept in DMEM, supplemented with 10% FBS (fetal bovine serum) and 1% non-essential amino acids, at 5% CO2 atmosphere, at 37° C., and 95% relative humidity. Cells were treated with trypsin, and replicated when an adequate cell concentration had been reached. The medium was exchanged after 12 hours, and later, every third day.
The method of Feelisch et al. (Feelisch et al., Concomitant S-, N-, and heme-nitros(yl)ation in biological tissues and fluids: implications for the fate of NO in vivo. FASEB J 16: 1775-1785, 2000) was employed to analyze NO production in the endothelial and neuronal cells described above.
Cells were grown in Petri dishes to 80% confluence. Peptide SEQ ID NO 8 was added in the concentration range of 0-8 μM to HUVEC cells, and 0-100 μM to SK-N-AS cells, and incubation continued for 24 hours. Subsequently, 1 ml of medium was retrieved (extracellular medium), and replaced by 1 ml 10 mM N-ethylmaleimide. Cells were washed in PBS, and lyzed in RIPA buffer (50 mM Tris pH 7.5, 150 mM NaCl, 1% Nonidet p-40 (NP-40) and 0.5% Na-desoxycholate, 0.1% SDS, 1 mM DTPA, and 10 mM N-ethylmaleimide). Lysats were collected and incubated on ice for 20 minutes and centrifuged. Supernatants were kept at −80° C. […] The concentration of nitrite, derived from NO, was measured in the extracellular and the intracellular media.

The nature of data set [1]: Determination of Z-pro metabolites in mice urine. Type of data set: in vivo, mouse. As to conditions: mice; 0.91 mg/Kg intraperitoneally; urine collected after 24 hours; mass spectrometry; 0.91 mg/kg. The procedure: In vivo hydrolysis of peptides SEQ ID NO 1, SEQ ID NO 4, SEQ ID NO 5, SEQ ID NO 8, and SEQ ID NO 15 was investigated in Swiss male mice weighing approximately 22-25 g, which had free access to food and water, and were kept under a light-dark cycle of 12 hour periods.
Groups of 10 mice were treated intraperitoneally with 0.91 mg/Kg of each proline rich oligopeptide per animal, diluted in 200 μl saline. Treated and control animals (not treated) were kept in metabolic cages, and their urine was collected after 24 hours. The urine was pre-purified in a reverse phase Sep-Pak C18 micro column (Waters), which had been previously equilibrated with solvent A (H2O/0.1% TFA). Samples were eluted with 60% solvent B (90% acetonitrile/10% solvent A), lyophilized, and resuspended in 1 ml deionized water to be centrifuged at 14.000 rpm for 5 minutes. The supernatant (500 μl) was fractionated in an analytic HPLC system. The gradient was 5-65% solvent B for 30 minutes, using a flow rate of 1 ml/min and monitoring at 214 nm. Fractions were lyophilized and ressuspended in acetonitrile/H2O (1:1), containing 0.2% formic acid, and were analyzed by mass spectrometry (Q-TOF-Pro). Urine fractions from control and treated animals were compared to determine the presence of metabolites originated from the peptides being tested.

A further data set concerns C6 cells from rat glioma. Put plainly: NO production in C6 glia cells. Format: cell-based. The procedure:
All reagents for cellular biology experiments were purchased from Invitrogen. C6 cells from rat glioma were cultured in DMEM, supplemented with 10% fetal bovine serum, streptomycin sulphate (100 μg/ml), and penicillin G (100 U/ml). Cultures were kept at 37° C. in 5% CO2 atmosphere. 24 hours before peptides were added, cells were transferred to a 24 well plate (1.5×10^5 cells/ml/well), containing DMEM medium lacking serum. Peptides were added to the cultures to a final concentration of 1 μM, and incubated for 24 hours at 37° C. in 5% CO2 atmosphere. The medium was collected and stored at −80° C.
NO concentration was determined in 1 ml of culture medium, which was incubated with N-ethylmaleimide at a final concentration of 10 mM, for 24 hours. The supernatant of a centrifugation at 1.000 rpm was injected in the NOA equipment (Nitric Oxide Analyser-Sievers) for NO quantification.

In data set [2] the test system is renal nitric oxide synthase (NOS). Nature of the data set: Activation of kidney NOS in mice (3H-arginine to 3H-citrulline conversion). Type of data set: in vivo, mouse. The protocol:
Male Swiss albinos weighing 22-25 g were injected intraperitoneally with: (1) 50 μl 0.9% NaCl (basal level control), or with 0.9% NaCl supplemented with LPS (2 mg/Kg) (positive control); (2) SEQ ID NO 8 (0.21, 0.91, and 3.47 mg/Kg); (3) SEQ ID NO 8 (0.91 mg/Kg) injected into animals pre-treated via intraperitoneally with L-NAME (3 mg/Kg for 1 h); (4) SEQ ID NO 8 (0.91 mg/Kg) injected into animals pre-treated via intraperitoneally with HOE140 (10 μg/Kg for 1 h); (5) captopril (0.21, 0.91, and 3.47 mg/Kg). After 5, 15, 30, 60, 120, and 180 min, animals were killed, their kidneys removed and stored at −70° C. Animals of group 3 and 4 were killed 30 minutes after administration of the oligopeptide.
NOS activity was measured according to Bredt and Snyder [Bredt D S and Snyder S H. Isolation of nitric oxide synthetase, a calmodulin-requiring enzyme. Proc. Natl. Acad. Sci. USA, 87, 682-685, 1990], and is based on estimating the enzymatic activity of the conversion of L-arginine into L-citrulline using ^3H-arginine as a reference for the conversion.
The kidneys were minced in homogenizing buffer, pH 7.4 (20 mM HEPES, 0.32 M saccharose, 1 mM DTT, 0.1 mM EDTA, 1 mM PMSF), and sonicated. Protein dosage was performed according to Bradford (1976), followed by a chromatography step in a 300 μL Dowex 50WX8-400 column.
For the enzymatic assay, 80 μg total protein from each sample were incubated for 60 minutes at 37° C. in 200 μL buffer (30 mM HEPES, 1 mM EDTA, 1.25 mM CaCl2, 1 mM NADPH, 10 μg/mL calmodulin, 4 μM FAD, 4 μM FMN, 25 μM BH4, 120 nM arginine, 0.5 μCi ^3H-arginine). The reaction was stopped by the addition of 1 ml 20 mM HEPES, and incubation in ice bath. ^3H-citrulline was separated from ^3H-arginine by ion-exchange chromatography in a 300 μL Dowex 50WX8-400 column. Radioactivity of the eluates was measured in a beta-counter. After converting cpm (counts per minute) into dpm (disintegration per minute), the specific activity of the nitric oxide synthase (NOS) was calculated using the following equation: […]

Turning to <ENWPHPQIPP [SEQ ID NO 8], in the data set with SK-N-AS cells, the “increase of NO generation” value is on record as “approximately 100%”. In addition, the “Metabolites in the urine” value in data set [1] is given as “<ENWPHPQIPP; also recorded: <ENWPHPQIP”. Further, in the data set on C6 cells from rat glioma, the “rank of efficiency in activating nitrite production” value is “the most efficient”. The “activation of mouse renal NOS activity” value in data set [2] (approximately 1 mg/Kg body weight) is listed as “approximately 60%”.
Turning to `CC(CS)C(=O)N1CCC[C@@H]1C(=O)O` (stereo partly drawn) [captopril, D-3-mercapto-2-methyl-1-oxopropyl-L-proline, reference compound], in data set [2] (0.2-3.5 mg/Kg of body weight), the “renal NOS activity after injection” value is reported as “No significant renal NOS activity”.
